Laboratory results: patent US20250034150A1, “BTK INHIBITORS” (BIOGEN MA INC., priority 2021, published 2025)
Structures can show the parent of a compound that is named as a salt. Where two headings read alike, the source gives them in different places.

Columns and labels:
[1] = system: CD69 expression on CD19+ B cells in human whole blood; assay: In Vitro whole blood CD69 Assay; type: cell-based; settings: B-cell, read-out: In Vitro HWB CD69 Assay IC50 Score
Protocol: Human heparinized venous blood from health donors was aliquoted into 96-well plate and “spiked” with serial dilutions of formula I compounds in DMSO or with DMSO without drug. The final concentration of DMSO in all wells was 0.1%. The plate was incubated at 37° C. for 30 min. Drug-containing samples were stimulated with 0.1 μg/mL mouse anti-human IgD-dextran (1A62) or 20 μg/mL polyclonal rabbit F(ab′)2 anti-human IgD. Phosphate-buffered saline (PBS) was added to the negative control unstimulated sample and the plates were incubated overnight (18 to 22 hours) at 37° C. Cells were stained with fluorochrome-conjugated anti-CD19 and anti-CD69 antibodies. Lyse/fix solution was used to remove red blood cells by hypotonic lysis and to fix the remaining cells, which were then analyzed by flow cytometry. CD19+ B cells were gated and analyzed for CD69 expression.

[2] = biological target: T1, BTK (Homo sapiens, UniProt Q06187); assay: In Vitro BTK Kinase Assay: Btk-PolyGAT-LS Assay; type: biochemical; settings: active BTK enzyme 0.25 nM, polyGAT 100 nM, 30 minutes, TRF readout; read-out: In Vitro BTK Kinase Assay IC50 Score
T1 construct: purchased Upstate 14-552
Summary of the method: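 Active BTK at 0.25 nM phosphorylated 100 nM fluorescein-polyGAT peptide at 10 μM ATP for 30 minutes. Buffer was Tris pH 7.5 with MgCl2, DTT, Triton X-100 and casein, and reactions were stopped with EDTA. Phospho-peptide was detected by Tb-PY20 antibody TR-FRET, and IC50 came from a four-parameter fit normalized to DMSO and EDTA controls.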

[3] = human heparinized whole blood, anti-human IgD stimulation overnight, CD19+ B cells, flow cytometry

T1 sequence (Q06187 whole entry): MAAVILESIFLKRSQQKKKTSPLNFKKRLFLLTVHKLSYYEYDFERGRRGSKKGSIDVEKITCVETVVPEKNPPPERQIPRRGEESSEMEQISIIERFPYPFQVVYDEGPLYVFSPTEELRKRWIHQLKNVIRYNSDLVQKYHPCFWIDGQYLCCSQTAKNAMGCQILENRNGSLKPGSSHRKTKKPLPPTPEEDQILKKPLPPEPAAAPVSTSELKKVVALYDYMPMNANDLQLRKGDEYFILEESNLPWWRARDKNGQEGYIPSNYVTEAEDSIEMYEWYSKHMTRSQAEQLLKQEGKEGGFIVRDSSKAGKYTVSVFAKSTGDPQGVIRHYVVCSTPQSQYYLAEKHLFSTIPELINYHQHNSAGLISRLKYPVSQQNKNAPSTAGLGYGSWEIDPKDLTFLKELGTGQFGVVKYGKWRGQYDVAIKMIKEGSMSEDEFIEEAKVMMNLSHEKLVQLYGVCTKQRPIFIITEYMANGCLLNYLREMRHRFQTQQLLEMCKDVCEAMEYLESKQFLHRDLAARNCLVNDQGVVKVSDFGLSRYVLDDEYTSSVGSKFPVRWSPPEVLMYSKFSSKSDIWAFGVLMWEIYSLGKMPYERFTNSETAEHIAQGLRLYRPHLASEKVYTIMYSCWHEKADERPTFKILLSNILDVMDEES

With `Cn1cc(-c2cn3nccc3c(-c3ccc(CNC(=O)c4noc(C5(C)CC5)n4)c(F)c3)n2)cn1` [Example 8, N-(2-fluoro-4-(6-(1-methyl-1H-pyrazol-4-yl)pyrazolo[1,5-a]pyrazin-4-yl)benzyl)-5-(1-methylcyclopropyl)-1,2,4-oxadiazole-3-carboxamide] the IC50 [1, 3] was under 1000 nM and the IC50 [2] was under 1 nM.
With `Cn1cc(-c2cc3nccn3c(-c3ccc(CNC(=O)c4cnn(C(C)(C)C)c4)cc3)n2)cn1` [Example 57, 1-(tert-butyl)-N-(4-(7-(1-methyl-1H-pyrazol-4-yl)imidazo[1,2-c]pyrimidin-5-yl)benzyl)-1H-pyrazole-4-carboxamide] the IC50 [1, 3] was 1000 to 10000 nM and the IC50 [2] was 1 to 10 nM.
`Cn1cc(-c2cn3nccc3c(-c3ccc(CNC(=O)c4nc(C(C)(C)CF)no4)c(F)c3)n2)cn1` [Example 13, 3-(1-fluoro-2-methylpropan-2-yl)-N-(2-fluoro-4-(6-(1-methyl-1H-pyrazol-4-yl)pyrazolo[1,5-a]pyrazin-4-yl)benzyl)-1,2,4-oxadiazole-5-carboxamide] gave an IC50 [1, 3] of under 1000 nM and an IC50 [2] of under 1 nM.
`Cc1cc(-c2nc(N3CCN(C)CC3)cn3nccc23)ccc1CNC(=O)c1cn(C(C)(C)C)nn1` [Example 121, 1-(tert-butyl)-N-(2-methyl-4-(6-(4-methylpiperazin-1-yl)pyrazolo[1,5-a]pyrazin-4-yl)benzyl)-1H-1,2,3-triazole-4-carboxamide trifluoroacetate] gave an IC50 [1, 3] of 1000 to 10000 nM and an IC50 [2] of 10 to 1000 nM.
With `Cn1cc(-c2cn3nccc3c(-c3ccc(CNC(=O)c4noc(C5(CF)CC5)n4)cc3)n2)cn1` [Example 20, 5-(1-(fluoromethyl)cyclopropyl)-N-(4-(6-(1-methyl-1H-pyrazol-4-yl)pyrazolo[1,5-a]pyrazin-4-yl)benzyl)-1,2,4-oxadiazole-3-carboxamide] the IC50 [1, 3] was under 1000 nM and the IC50 [2] was under 1 nM.
`Cn1cc(-c2cn3nccc3c(N3CCC(CN4CCN(CC(C)(C)C)CC4=O)CC3)n2)cn1` [Example 172, 1-((1-(6-(1-methyl-1H-pyrazol-4-yl)pyrazolo[1,5-a]pyrazin-4-yl)piperidin-4-yl)methyl)-4-neopentylpiperazin-2-one] gave an IC50 [1, 3] of 1000 to 10000 nM and an IC50 [2] of 10 to 1000 nM.
Compound `Cn1cc(-c2cn3nccc3c(-c3ccc(CNC(=O)c4ccn(C(C)(C)C)n4)c(F)c3F)n2)cn1` [Example 91, 1-(tert-butyl)-N-(2,3-difluoro-4-(6-(1-methyl-1H-pyrazol-4-yl)pyrazolo[1,5-a]pyrazin-4-yl)benzyl)-1H-pyrazole-3-carboxamide] has an IC50 [1, 3] of 1000 to 10000 nM and an IC50 [2] of 1 to 10 nM.
For `Cn1cc(-c2cn3nccc3c(N3CCC(CNC(=O)c4noc(C(C)(C)C)n4)C(F)(F)C3)n2)cn1` (stereo not shown) [Example 157, 5-(tert-butyl)-N-((3,3-difluoro-1-(6-(1-methyl-1H-pyrazol-4-yl)pyrazolo[1,5-a]pyrazin-4-yl)piperidin-4-yl)methyl)-1,2,4-oxadiazole-3-carboxamide], the IC50 [1, 3] was under 1000 nM and the IC50 [2] was under 1 nM.
With `CC(C)(C)n1nnc(C(=O)NCc2ccc(-c3nc(N4CCOCC4)cn4nccc34)cc2)n1` [Example 25, 2-(tert-butyl)-N-(4-(6-morpholinopyrazolo[1,5-a]pyrazin-4-yl)benzyl)-2H-tetrazole-5-carboxamide] the IC50 [1, 3] was 1000 to 10000 nM and the IC50 [2] was 10 to 1000 nM.
With `C[C@H]1CN(c2nc(-c3cnn(C)c3)cn3nccc23)CC[C@@H]1CNC(=O)c1noc(C2(C)CC2)n1` (single isomer, unassigned) [Example 148] the IC50 [1, 3] was 1000 to 10000 nM and the IC50 [2] was 1 to 10 nM.
For `COCCOc1cn2nccc2c(-c2ccc(CNC(=O)c3nc(C4(C)CC4)no3)c(C)c2)n1` [Example 133, N-(4-(6-(2-methoxyethoxy)pyrazolo[1,5-a]pyrazin-4-yl)-2-methylbenzyl)-3-(1-methylcyclopropyl)-1,2,4-oxadiazole-5-carboxamide], the IC50 [1, 3] was 1000 to 10000 nM and the IC50 [2] was 1 to 10 nM.
With `Cc1cc(-c2nc(-c3cnn(C)c3)cn3nccc23)ccc1CNC(=O)c1nnn(C(C)(C)C)n1` [Example 15, 2-(tert-butyl)-N-(2-methyl-4-(6-(1-methyl-1H-pyrazol-4-yl)pyrazolo[1,5-a]pyrazin-4-yl)benzyl)-2H-tetrazole-5-carboxamide] the IC50 [1, 3] was under 1000 nM and the IC50 [2] was under 1 nM.
Compound `Cn1cc(-c2cc3nccn3c(-c3ccc(CNC(=O)c4nc(C5(CF)CC5)no4)cc3)n2)cn1` [Example 63, 3-(1-(fluoromethyl)cyclopropyl)-N-(4-(7-(1-methyl-1H-pyrazol-4-yl)imidazo[1,2-c]pyrimidin-5-yl)benzyl)-1,2,4-oxadiazole-5-carboxamide] has an IC50 ([1]; Homo sapiens) of 1000 to 10000 nM and an IC50 [2] of 1 to 10 nM.
With `C[C@@H]1CN(c2nc(-c3cnn(C)c3)cn3nccc23)CC[C@@H]1CNC(=O)c1noc(C2(C)CC2)n1` (single isomer, unassigned) [Example 146] the IC50 [1, 3] was 1000 to 10000 nM and the IC50 [2] was 1 to 10 nM.
`Cn1cc(-c2cc(-c3ccc(CNC(=O)c4cn(C(C)(C)C)nn4)c(F)c3)c3ccnn3c2)cn1` [Example 69, 1-(tert-butyl)-N-(2-fluoro-4-(6-(1-methyl-1H-pyrazol-4-yl)pyrazolo[1,5-a]pyridin-4-yl)benzyl)-1H-1,2,3-triazole-4-carboxamide] showed an IC50 [1, 3] of under 1000 nM and an IC50 [2] of under 1 nM.
With `Cn1cc(-c2cn3nccc3c(-c3cc(F)c(CNC(=O)c4nc(C(C)(C)C)no4)cc3F)n2)cn1` [Example 94, 3-(tert-butyl)-N-(2,5-difluoro-4-(6-(1-methyl-1H-pyrazol-4-yl)pyrazolo[1,5-a]pyrazin-4-yl)benzyl)-1,2,4-oxadiazole-5-carboxamide] the IC50 [1, 3] was under 1000 nM and the IC50 [2] was under 1 nM.
`Cn1cc(-c2cn3ncnc3c(N3CCC(CNC(=O)c4cn(C(C)(C)C)nn4)CC3)n2)cn1` [Example 74, 1-(tert-butyl)-N-((1-(6-(1-methyl-1H-pyrazol-4-yl)-[1,2,4]triazolo[1,5-a]pyrazin-8-yl)piperidin-4-yl)methyl)-1H-1,2,3-triazole-4-carboxamide] was tested, and the IC50 [1, 3] was 1000 to 10000 nM and the IC50 [2] was 10 to 1000 nM.
In the case of `Cn1cc(-c2cn3nccc3c(-c3ccc(CNC(=O)c4nc(C(C)(C)C)no4)cc3F)n2)cn1` [Example 108, 3-(tert-butyl)-N-(3-fluoro-4-(6-(1-methyl-1H-pyrazol-4-yl)pyrazolo[1,5-a]pyrazin-4-yl)benzyl)-1,2,4-oxadiazole-5-carboxamide], the IC50 [1, 3] is reported as under 1000 nM and the IC50 [2] is reported as under 1 nM.
`Cn1cc(-c2cn3nccc3c(-c3ccc4c(c3)CN(CC(F)(F)F)CC[C@H]4NC(=O)c3cn(C(C)(C)C)nn3)n2)cn1` [Example 40, (R)-1-(tert-butyl)-N-(8-(6-(1-methyl-1H-pyrazol-4-yl)pyrazolo[1,5-a]pyrazin-4-yl)-2-(2,2,2-trifluoroethyl)-2,3,4,5-tetrahydro-1H-benzo[c]azepin-5-yl)-1H-1,2,3-triazole-4-carboxamide] was tested, and the IC50 [1, 3] was under 1000 nM and the IC50 [2] was 1 to 10 nM.
Work on `Cn1cc(-c2cn3nccc3c(-c3ccc(CNC(=O)c4nc(C(C)(C)C)no4)cc3)n2)cn1` [Example 19, 3-(tert-butyl)-N-(4-(6-(1-methyl-1H-pyrazol-4-yl)pyrazolo[1,5-a]pyrazin-4-yl)benzyl)-1,2,4-oxadiazole-5-carboxamide] yielded an IC50 [1, 3] of under 1000 nM and an IC50 [2] of under 1 nM.
With `Cn1cc(-c2cc3nccn3c(-c3ccc(CNC(=O)c4noc(C5(C)CC5)n4)cc3)n2)cn1` [Example 60, N-(4-(7-(1-methyl-1H-pyrazol-4-yl)imidazo[1,2-c]pyrimidin-5-yl)benzyl)-5-(1-methylcyclopropyl)-1,2,4-oxadiazole-3-carboxamide] the IC50 [1, 3] was 1000 to 10000 nM and the IC50 [2] was 1 to 10 nM.
`CN1CCN(c2cn3nccc3c(-c3ccc(CNC(=O)c4nc(C(C)(C)C)no4)c(F)c3)n2)CC1` [Example 118, 3-(tert-butyl)-N-(2-fluoro-4-(6-(4-methylpiperazin-1-yl)pyrazolo[1,5-a]pyrazin-4-yl)benzyl)-1,2,4-oxadiazole-5-carboxamide] was tested, and the IC50 [1, 3] was 1000 to 10000 nM and the IC50 [2] was 1 to 10 nM.
Compound `Cn1cc(-c2cn3nccc3c(-c3ccc(CNC(=O)c4coc(C(C)(C)C)n4)c(F)c3F)n2)cn1` [Example 90, 2-(tert-butyl)-N-(2,3-difluoro-4-(6-(1-methyl-1H-pyrazol-4-yl)pyrazolo[1,5-a]pyrazin-4-yl)benzyl)oxazole-4-carboxamide] has an IC50 [1, 3] of under 1000 nM and an IC50 [2] of under 1 nM.
`Cn1cc(-c2cc(-c3ccc(CNC(=O)c4nc(C(C)(C)CF)no4)c(F)c3)c3ccnn3c2)cn1` [Example 71, 3-(1-fluoro-2-methylpropan-2-yl)-N-(2-fluoro-4-(6-(1-methyl-1H-pyrazol-4-yl)pyrazolo[1,5-a]pyridin-4-yl)benzyl)-1,2,4-oxadiazole-5-carboxamide] showed an IC50 [1, 3] of under 1000 nM and an IC50 [2] of under 1 nM.
`CC1CN(c2nc(-c3cnn(C)c3)cn3nccc23)CCC1CNC(=O)c1noc(C(C)(C)C)n1` (stereo not shown) [Example 144, 5-(tert-butyl)-N-((3-methyl-1-(6-(1-methyl-1H-pyrazol-4-yl)pyrazolo[1,5-a]pyrazin-4-yl)piperidin-4-yl)methyl)-1,2,4-oxadiazole-3-carboxamide] was tested, and the IC50 ([1]; Homo sapiens) was under 1000 nM and the IC50 [2] was 1 to 10 nM.
For `CC(C)(C)c1nc(C(=O)NCc2ccc(-c3nc(N4CCOCC4)cn4nccc34)cc2)no1` [Example 23, 5-(tert-butyl)-N-(4-(6-morpholinopyrazolo[1,5-a]pyrazin-4-yl)benzyl)-1,2,4-oxadiazole-3-carboxamide], the IC50 [1, 3] was 1000 to 10000 nM and the IC50 [2] was 1000 to 10000 nM.
